Series [1] is described as follows: Human serum stability assay (SDS-PAGE autoradiograph). It counts as in vitro ADME. As to conditions: incubated with human serum 1 h at 37° C., pH 7.4, non-reducing SDS-PAGE. How it is done: FIGS. 4A and 4B show stability testing for compound 3*, namely the analysis of ^197(m)Hg-incorporation into human serum proteins by SDS-PAGE (20% SDS-polyacrylamide gel autoradiograph (FIG. 4A), showing 197(m)Hg-labeled bands, and Coomassie staining (FIG. 4B), showing bands of human serum proteins; Lane 1: ^197(m)>Hg-radiolabeled bispidine 3*. Lane 2: ^197(m)Hg-radiolabeled EDTA. M: molecular-weight size marker).
Human serum “off the clot” (5 ml) stored at −20° C. was slowly thawed on ice and filtered using syringe filters with a pore size of 0.2 μm. Two aliquots of filtered serum (2×220 μl) were mixed with 1 M HEPES/NaOH buffer (pH 7.4, 2×45 μl). Separately, 2×200 μl solution (1:1 EtOH:H2O, pH 6) of 3* (˜4 MBq) and 197(m)HgCl2/EDTA (˜5 MBq, 10 μg EDTA) had 1 M HEPES/NaOH buffer (pH 8.0, 2×20 μl) added to increase solution pH to 7.4. Then 135 μl of each 197(m)Hg-radiolabeled sample was added to one of the previously prepared serum/buffer solutions (265 μl) and incubated for 1 h at 37° C. 50 μl aliquots were then taken and mixed with 50 μl of 2× Laemmli sample buffer (Bio-Rad Laboratories), N.B. no reducing agent was added and the samples were not heated. The mixtures were then analyzed by non-reducing SDS-PAGE with acrylamide concentrations of 5% in the stacking gel and 20% in the resolving gel. 2 μl of each sample were loaded into each gel well. […]

Series [2] in a line: Stability test with excess of sulfur-containing competitors (radio-TLC). It counts as physicochemical. As for the experimental part: (§1) After pH-adjustment of the hydrochloric acid solution of [197(m)Hg]HgCl2(aq) (˜55 MBq, 20 μl, pH 1), by addition of 0.5 M HEPES buffer (pH 8, 200 μl), EtOH (200 μl), 6 M NaOH(aq) (11 μl), and 1 M NaOH(aq) (2 μl), a 1 mg/ml acetonitrile solution of 2 (12 μl, 14 nmol) was added. This solution (pH 6, 445 μl) was mixed at 50° C. for 1 h. The radiochemical yield of 3* was determined by radio-TLC (iTLC ACN+0.1% TFA, RP-18 TLC 9:1 ACN: H2O+0.1% TFA) as >95%. Purification and solvent change were carried out with a C8 cartridge (500 mg). After washing with water the major product was eluted with 7:3 EtOH:H2O from the cartridge. The last 2 fractions contained ˜16 MBq and ˜10 MBq respectively. The ˜16 MBq fraction had 3×200 μl extracted (˜4 MBq each). These fractions then had 1 competitor added each (1 mg/ml, 10 μl): tris(2-mercaptoethyl)ammonium oxalate, glutathione and Na2S. The mixtures were left at rt and checked by radio-TLC after 5 min, 1 h and 2 d, the only degradation observed was ˜4% after 2 d in the Na2S mixture. The ˜10 MBq fraction was divided into 2×500 μl. The first lot was used to test the stability of 3* in the highly aqueous solvent system necessary for biodistribution studies, this was diluted from 70% EtOH(aq) to ˜10% EtOH(aq) with brine (3.5 ml). […]

Series [3] can be described thus: Stability in highly aqueous solvent system for biodistribution studies. As to conditions: diluted from 70% EtOH(aq) to ~10% EtOH(aq) with brine. It counts as physicochemical. As for the experimental part: as §1
Series [4] can be described thus: Volatility test. It counts as physicochemical. As to conditions: 70% EtOH(aq), 50° C., dry nitrogen stream 1 h. As for the experimental part: as §1
Series [5] in a line: Biodistribution in healthy male Wistar rats. It counts as in vivo. An excerpt: FIG. 5 show biodistribution of compound 3* in healthy male Wistar rats (^197(m)HgCl2: n=4, 3*: n=8; ˜300 kBq per animal; all other organs measured well below 1% ID/g).

Entries after “also recorded” stand apart in the source; their conditions may differ.

We go through one compound from patent US20210228748A1, “IN VIVO STABLE HG-197(M) COMPOUNDS, METHOD FOR THE PRODUCTION THEREOF AND USE THEREOF IN NUCLEAR MEDICAL DIAGNOSTICS AND ENDORADIONUCLIDE THERAPY (THERANOSTICS)” (HELMHOLTZ-ZENTRUM DRESDEN - […].V., priority 2017, published 2021).

For the compound `CCCC[C@]1(O)C2(c3ccccc3)CN3Cc4cccc[c]4[Hg][c]4ccccc4CN(C2)C[C@]1(c1ccccc1)C3` [3*, 9-butyl-8,10-diphenyl-6,10:8,12-dimethanodibenzo[c,f][1,9]diaza[5]mercuracyclotetradecan-9-ol], the “197(m)Hg release (demetallation) and binding to serum proteins” value in series [1] was “there isn't any observable protein interaction; also recorded: neither 197(m)Hg release (demetallation) nor binding to serum proteins is detectable”. In addition, the “degradation observed by radio-TLC” value in series [2] (Na2S competitor (1 mg/ml, 10 μl), rt, after 2 d) was roughly 4%. For the same compound, the “chemical stability against sulfur-containing competitors” value in series [2] (excess of glutathione, tris(2-mercaptoethyl)ammonium oxalate and sodium sulfide) was “high chemical stability”. Also, the “stability of the solution by radio-TLC” value in series [3] is “good stability”. In addition, the “loss of activity by evaporation (volatility)” value in series [4] is given as “no observable loss by evaporation”. Besides, the “biodistribution, all other organs (not shown in FIG. 5)” value in series [5] (healthy male Wistar rats, ~300 kBq per animal) is “below 1 % ID/g”. In series [5] (healthy rats, biodistribution and SPECT), the “demetallation and retention in the kidneys” value was “no indication of demetallation and retention in the kidneys”. Further, the “organ / renal clearance” value in series [5] (healthy rats, normal micturition during a 24 h period) is given as “good organ clearance; also recorded: good renal clearance”.
